Read-outs that look alike come from different tables or passages of the source.
Molecular target: CSF-1R (Homo sapiens, UniProt P07333)
Experiment: Peptide (non-phosphorylated) assay, fluorescence polarization competition immunoassay
Type: biochemical
Conditions: 308 μM SYEGNSYTFIDPTQ peptide, 1 mM ATP, 80 min, mean of at least three determinations
Method in brief: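 Read-out is fluorescence polarization: after EDTA quench, anti-phosphotyrosine antibody plus PTK green tracer compete with the phosphorylated peptide for 30 min. The CSF-1R reaction itself ran 80 min at room temperature after ATP addition. DMSO (4%) wells served as controls, positive controls pre-treated with EDTA.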

[1] = 0.7 nM CSF-1R, read-out: c-fms Peptide IC50

Chain of CSF-1R (P07333 20-972): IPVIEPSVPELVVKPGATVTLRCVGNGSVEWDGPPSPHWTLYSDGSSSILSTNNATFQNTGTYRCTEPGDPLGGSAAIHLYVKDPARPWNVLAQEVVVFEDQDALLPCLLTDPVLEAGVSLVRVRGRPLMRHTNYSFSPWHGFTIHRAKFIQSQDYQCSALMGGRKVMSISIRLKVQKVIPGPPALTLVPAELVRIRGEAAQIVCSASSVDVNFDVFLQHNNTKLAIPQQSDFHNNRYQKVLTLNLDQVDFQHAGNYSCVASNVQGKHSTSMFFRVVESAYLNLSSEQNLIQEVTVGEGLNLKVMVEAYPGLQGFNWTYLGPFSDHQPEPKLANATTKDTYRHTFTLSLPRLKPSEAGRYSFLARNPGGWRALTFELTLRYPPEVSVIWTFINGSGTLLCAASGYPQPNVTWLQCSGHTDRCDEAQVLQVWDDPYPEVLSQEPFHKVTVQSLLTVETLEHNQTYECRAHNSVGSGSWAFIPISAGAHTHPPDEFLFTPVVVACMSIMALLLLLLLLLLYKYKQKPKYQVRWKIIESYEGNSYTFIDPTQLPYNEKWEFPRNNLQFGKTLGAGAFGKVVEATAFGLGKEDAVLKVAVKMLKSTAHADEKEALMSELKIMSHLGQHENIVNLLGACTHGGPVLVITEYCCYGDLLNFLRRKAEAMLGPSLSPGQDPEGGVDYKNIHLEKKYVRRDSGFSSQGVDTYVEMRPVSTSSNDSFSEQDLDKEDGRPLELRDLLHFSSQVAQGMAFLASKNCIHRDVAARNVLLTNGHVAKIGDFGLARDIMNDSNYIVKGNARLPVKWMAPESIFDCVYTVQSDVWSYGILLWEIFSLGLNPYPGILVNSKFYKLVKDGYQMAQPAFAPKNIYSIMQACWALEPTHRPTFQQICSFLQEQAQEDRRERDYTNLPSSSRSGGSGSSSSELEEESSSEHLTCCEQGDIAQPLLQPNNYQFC

| SMILES | IC50 [1] | IC50 (c-fms Peptide IC50, 0.7 nM CSF-1R) |
| --- | --- | --- |
| CONC(=O)c1cn(C2CCCC2)c2nc(Nc3ccc(C(=O)N4CCCC4)cc3)ncc2c1=O [Cpd 36, 8-cyclopentyl-5-oxo-2-[4-(pyrrolidine-1-carbonyl)-phenylamino]-5,8-dihydro-pyrido[2,3-d]pyrimidine-6-carboxylic acid methoxy-amide] | 2.1 nM | – |
| NC(=O)c1cn(-c2ccc3c(c2)CCC3)c2nc(Nc3ccc(CN4CCCC4=O)cc3)ncc2c1=O [Cpd 8, 8-indan-5-yl-5-oxo-2-[4-(2-oxo-pyrrolidin-1-ylmethyl)-phenylamino]-5,8-dihydro-pyrido[2,3-d]pyrimidine-6-carboxylic acid amide] | 1.6 nM | – |
| CONC(=O)c1cn(-c2ccc3c(c2)CCC3)c2nc(Nc3ccc(CCNS(C)(=O)=O)cc3)ncc2c1=O [Cpd 82, 8-indan-5-yl-2-[4-(2-methanesulfonylamino-ethyl)-phenylamino]-5-oxo-5,8-dihydro-pyrido[2,3-d]pyrimidine-6-carboxylic acid methoxy-amide] | 3.6 nM | – |
| CCc1ccc(-n2cc(C(=O)NOC)c(=O)c3cnc(Nc4cccc(OCCOC)c4)nc32)cc1 [Cpd 215, 8-(4-ethyl-phenyl)-2-[3-(2-methoxy-ethoxy)-phenylamino]-5-oxo-5,8-dihydro-pyrido[2,3-d]pyrimidine-6-carboxylic acid methoxy-amide] | 1 nM | – |
| CONC(=O)c1cn(-c2ccc3c(c2)CCC3)c2nc(Nc3ccc(Cn4cncn4)cc3)ncc2c1=O [Cpd 283, 8-indan-5-yl-5-oxo-2-(4-[1,2,4]triazol-1-ylmethyl-phenylamino)-5,8-dihydro-pyrido[2,3-d]pyrimidine-6-carboxylic acid methoxy-amide] | 0.9 nM | – |
| CC(C)ONC(=O)c1cn(C2CC2)c2nc(Nc3ccc(CCN4CCCC4)cc3)ncc2c1=O [Cpd 143, 8-cyclopropyl-5-oxo-2-[4-(2-pyrrolidin-1-yl-ethyl)-phenylamino]-5,8-dihydro-pyrido[2,3-d]pyrimidine-6-carboxylic acid isopropoxy-amide] | 130 nM | – |
| CCONC(=O)c1cn(C2CCCC2)c2nc(Nc3ccc(CCN4CCCC4)cc3)ncc2c1=O [Cpd 40, 8-cyclopentyl-5-oxo-2-[4-(2-pyrrolidin-1-yl-ethyl)-phenylamino]-5,8-dihydro-pyrido[2,3-d]pyrimidine-6-carboxylic acid ethoxy-amide] | 6.8 nM | – |
| CN(C)C(=O)c1ccc(Nc2ncc3c(=O)c(C(N)=O)cn(-c4ccc5c(c4)CCC5)c3n2)cc1 [Cpd 123, 2-(4-dimethylcarbamoyl-phenylamino)-8-indan-5-yl-5-oxo-5,8-dihydro-pyrido[2,3-d]pyrimidine-6-carboxylic acid amide] | 4.5 nM | – |
| CN1CCC(c2ccc(Nc3ncc4c(=O)c(C(=O)O)cn(-c5ccc6c(c5)CCC6)c4n3)cc2)CC1 [Cpd 222, 8-indan-5-yl-2-[4-(1-methyl-piperidin-4-yl)-phenylamino]-5-oxo-5,8-dihydro-pyrido[2,3-d]pyrimidine-6-carboxylic acid] | 29 nM | – |
| CCc1ccc(-n2cc(C(=O)NOC)c(=O)c3cnc(Nc4ccc(OCCOC)c(OCCOC)c4)nc32)cc1 [Cpd 308, 2-[3,4-bis-(2-methoxy-ethoxy)-phenylamino]-8-(4-ethyl-phenyl)-5-oxo-5,8-dihydro-pyrido[2,3-d]pyrimidine-6-carboxylic acid methoxy-amide] | 0.9 nM | – |
| O=C(NO)c1cn(C2CCCCC2)c2nc(Nc3ccc(CCN4CCCC4)cc3)ncc2c1=O [Cpd 17, 8-cyclohexyl-5-oxo-2-[4-(2-pyrrolidin-1-yl-ethyl)-phenylamino]-5,8-dihydro-pyrido[2,3-d]pyrimidine-6-carboxylic acid hydroxyamide] | 0.94 nM | – |
| CONC(=O)c1cn(-c2ccc3c(c2)CCC3)c2nc(Nc3ccc(CCN4CCOCC4)cc3)ncc2c1=O [Cpd 80, 8-indan-5-yl-2-[4-(2-morpholin-4-yl-ethyl)-phenylamino]-5-oxo-5,8-dihydro-pyrido[2,3-d]pyrimidine-6-carboxylic acid methoxy-amide] | – | 1.3 nM |
| CCONC(=O)c1cn(-c2ccc3c(c2)CCC3)c2nc(Nc3ccc(C4CCN(C)CC4)cc3)ncc2c1=O [Cpd 139, 8-indan-5-yl-2-[4-(1-methyl-piperidin-4-yl)-phenylamino]-5-oxo-5,8-dihydro-pyrido[2,3-d]pyrimidine-6-carboxylic acid ethoxy-amide] | 1 nM | – |
| CCc1ccc(-n2cc(C(=O)NOC)c(=O)c3cnc(Nc4ccc(-c5cccc(OC)c5)cc4)nc32)cc1 [Cpd 299, 8-(4-ethyl-phenyl)-2-(3′-methoxy-biphenyl-4-ylamino)-5-oxo-5,8-dihydro-pyrido[2,3-d]pyrimidine-6-carboxylic acid methoxy-amide] | 32 nM | – |
| CONC(=O)c1cn(C2CCCCC2)c2nc(Nc3ccc(C(=O)N4CCCC4)cc3)ncc2c1=O [Cpd 11, 8-cyclohexyl-5-oxo-2-[4-(pyrrolidine-1-carbonyl)-phenylamino]-5,8-dihydro-pyrido[2,3-d]pyrimidine-6-carboxylic acid methoxy-amide] | > 300 nM | – |
| CONC(=O)c1cn(-c2ccc3c(c2)CCC3)c2nc(Nc3ccc4c(ccn4C)c3)ncc2c1=O [Cpd 291, 8-indan-5-yl-2-(1-methyl-1H-indol-5-ylamino)-5-oxo-5,8-dihydro-pyrido[2,3-d]pyrimidine-6-carboxylic acid methoxy-amide] | 1.3 nM | – |
| CONC(=O)c1cn(-c2ccc(OC(F)(F)F)cc2)c2nc(Nc3ccc(C4CCN(S(N)(=O)=O)CC4)cc3)ncc2c1=O [Cpd 177, 5-oxo-2-[4-(1-sulfamoyl-piperidin-4-yl)-phenylamino]-8-(4-trifluoromethoxyphenyl)-5,8-dihydropyrido[2,3-d]pyrimidine-6-carboxylic acid methoxy-amide] | 6.6 nM | – |
| CONC(=O)c1cn(-c2ccc3c(c2)CCC3)c2nc(Nc3cccc(CCN4CCS(=O)(=O)CC4)c3)ncc2c1=O [Cpd 205, 2-{3-[2-(1,1-dioxo-1λ^6-thiomorpholin-4-yl)-ethyl]-phenylamino}-8-indan-5-yl-5-oxo-5,8-dihydro-pyrido[2,3-d]pyrimidine-6-carboxylic acid methoxy-amide] | 1 nM | – |

Continued by falling IC50 [1], values first:

| IC50 [1] | IC50 (c-fms Peptide IC50, 0.7 nM CSF-1R) | SMILES |
| --- | --- | --- |
| 0.83 nM | – | CONC(=O)c1cn(-c2ccc3c(c2)CCC3)c2nc(Nc3ccc(C4CCN(S(C)(=O)=O)CC4)cc3)ncc2c1=O [Cpd 76, 8-indan-5-yl-2-[4-(1-methanesulfonyl-piperidin-4-yl)-phenylamino]-5-oxo-5,8-dihydro-pyrido[2,3-d]pyrimidine-6-carboxylic acid methoxy-amide] |
| 0.7 nM | – | CCc1ccc(-n2cc(C(=O)NOC(C)C)c(=O)c3cnc(Nc4ccc(C5CCN(CC)CC5)cc4)nc32)cc1 [Cpd 182, 8-(4-ethyl-phenyl)-2-[4-(1-ethyl-piperidin-4-yl)-phenylamino]-5-oxo-5,8-dihydro-pyrido[2,3-d]pyrimidine-6-carboxylic acid isopropoxy-amide] |
| 0.68 nM | – | CONC(=O)c1cn(-c2ccc3c(c2)CCC3)c2nc(Nc3ccc(CCN4CCN(C)CC4)cc3)ncc2c1=O [Cpd 61, 8-indan-5-yl-2-{4-[2-(4-methyl-piperazin-1-yl)-ethyl]-phenylamino}-5-oxo-5,8-dihydro-pyrido[2,3-d]pyrimidine-6-carboxylic acid methoxy-amide] |
| 0.66 nM | – | CONC(=O)c1cn(-c2ccc3c(c2)CCC3)c2nc(Nc3cccc(C4(O)CCCNC4)c3)ncc2c1=O (stereo not shown) [Cpd 275, 2-[3-(3-hydroxy-piperidin-3-yl)-phenylamino]-8-indan-5-yl-5-oxo-5,8-dihydro-pyrido[2,3-d]pyrimidine-6-carboxylic acid methoxy-amide] |
| 0.62 nM | – | CONC(=O)c1cn(-c2ccc3c(c2)CCC3)c2nc(Nc3ccc(CCN(C)C4CCOCC4)cc3)ncc2c1=O [Cpd 74, 8-indan-5-yl-2-(4-{2-[methyl-(tetrahydro-pyran-4-yl)-amino]-ethyl}-phenylamino)-5-oxo-5,8-dihydro-pyrido[2,3-d]pyrimidine-6-carboxylic acid methoxy-amide] |
| 0.62 nM | – | CONC(=O)c1cn(-c2ccc3c(c2)CCC3)c2nc(Nc3ccc(CCN4CC(F)C4)cc3)ncc2c1=O [Cpd 266, 2-{4-[2-(3-fluoro-azetidin-1-yl)-ethyl]-phenylamino}-8-indan-5-yl-5-oxo-5,8-dihydro-pyrido[2,3-d]pyrimidine-6-carboxylic acid methoxy-amide] |
| 0.57 nM | – | CCc1ccc(-n2cc(C(=O)NOC)c(=O)c3cnc(Nc4ccc(CCN5CC(F)C5)cc4)nc32)cc1 [Cpd 265, 8-(4-ethyl-phenyl)-2-{4-[2-(3-fluoro-azetidin-1-yl)-ethyl]-phenylamino}-5-oxo-5,8-dihydro-pyrido[2,3-d]pyrimidine-6-carboxylic acid methoxy-amide] |
| 0.5 nM | – | CONC(=O)c1cn(-c2ccc3c(c2)CCC3)c2nc(Nc3cccc(N4CCOCC4)c3)ncc2c1=O [Cpd 325, 8-indan-5-yl-2-(3-morpholin-4-yl-phenylamino)-5-oxo-5,8-dihydro-pyrido[2,3-d]pyrimidine-6-carboxylic acid methoxy-amide] |
| 0.4 nM | – | CCc1ccc(-n2cc(C(=O)NOC)c(=O)c3cnc(Nc4ccc5c(c4)OCCOCCOCCOCCOCCO5)nc32)cc1 [Cpd 294, 2-(6,7,9,10,12,13,15,16,18,19-decahydro-5,8,11,14,17,20-hexaoxa-benzocyclooctadecen-2-ylamino)-8-(4-ethyl-phenyl)-5-oxo-5,8-dihydro-pyrido[2,3-d]pyrimidine-6-carboxylic acid methoxy-amide] |
| 0.3 nM | – | CCc1ccc(-n2cc(C(=O)NOC)c(=O)c3cnc(Nc4ccc5c(c4)CCN5C(C)=O)nc32)cc1 [Cpd 279, 2-(1-acetyl-2,3-dihydro-1H-indol-5-ylamino)-8-(4-ethyl-phenyl)-5-oxo-5,8-dihydro-pyrido[2,3-d]pyrimidine-6-carboxylic acid methoxy-amide] |
